In patent publication US20040082614A1, “Methods of treating infection using anitbiotics and glycogen phosphorylase inhibitors” (Pfizer Inc., priority 2002, published 2004):
Like-named read-outs stand apart in the source and are kept apart here.

Tests used:
Format in all cases: cell-based
Chlamydia pneumonia [1] = test: Minimum bacteriocidal concentration (MBC) determination in Hep2 cells infected with Chlamydia pneumonia, drugs removed at 72 h, further 72 h; settings: for reduction of the MBC for azithromycin by the glycogen phosphorylase inhibitor: summary statement, combination with azithromycin
Procedure: (§1) Hep2 cells maintained in Isocove's Modified Dulbecco's Medium (IMDM) were infected with Chlamydia pneumonia (0.5 MOI for two hours after one hour centrifugation). Cells were then treated with Compound A (0, 5, 10, 20, 30 or 40 μg/ml) or Compound B (0, 5, 10, 20, 30 or 40 μg/ml) alone and/or in combination with azithromycin (Pfizer, Inc., New York, N.Y.) 0, 0.005, 0.0158, 0.050, 0.158, or 0.5 μg/ml). For minimum inhibitory concentration (MIC) determination, cells were terminated for analysis at 72 h after the addition of drugs. For minimum bacteriocidal concentration (MBC) determination, drugs were removed at 72 h post-treatment, the media was replaced, and cells were maintained for an additional 72 h before termination. At termination, cells were analyzed for quantitation of inclusion bodies using fluorescent microscopy, and general cell viability by microscopic visualization.

Chlamydia pneumonia [2] = test: Minimum inhibitory concentration (MIC) determination in Hep2 cells infected with Chlamydia pneumonia, inclusion bodies by fluorescent microscopy; settings: for antibacterial effects of the combination with azithromycin: MIC and MBC
Procedure: as §1

Hep2 cells = test: General cell viability / host cell appearance by microscopic visualization
Procedure: as §1

[3] = Chlamydia, 72 h, drug alone, drugs removed at 72 h, additional 72 h, read-out: MBC
[4] = combined with 5 μg/ml Compound A
[5] = combined with 30 μg/ml Compound B
[6] = Chlamydia, 72 h, drug alone, 72 h after addition of drugs, read-out: MIC

## CC[C@H]1OC(=O)[C@H](C)[C@@H](O[C@H]2C[C@@](C)(OC)[C@@H](O)[C@H](C)O2)[C@H](C)[C@@H](O[C@@H]2O[C@H](C)C[C@H](N(C)C)[C@H]2O)[C@](C)(O)C[C@@H](C)CN(C)[C@H](C)[C@@H](O)[C@]1(C)O [Azithromycin, 9a-aza-9a-methyl-9-deoxo-9a-homoerythromycin A]
Chlamydia pneumonia [1]; [3]
  MBC: 0.5 µg/mL
Chlamydia pneumonia [1]; Chlamydia, combined with 5 μg/ml Compound A, read-out: azithromycin concentration required for MBC
  MBC: 0.158 µg/mL
Chlamydia pneumonia [1]; Chlamydia, combined with 20 μg/ml Compound A, read-out: azithromycin concentration required for MBC
  MBC: 0.05 µg/mL
Chlamydia pneumonia [1]; Chlamydia, combined with 30 μg/ml Compound B, read-out: azithromycin concentration required for MBC
  MBC: 0.158 µg/mL
Chlamydia pneumonia [1]; [4]
  decrease in azithromycin concentration required for MBC: 3 fold
Chlamydia pneumonia [1]; combined with 20 μg/ml Compound A
  decrease in azithromycin concentration required for MBC: 10 fold
Chlamydia pneumonia [1]; [5]
  decrease in azithromycin concentration required for MBC: 3 fold
Chlamydia pneumonia [2]; [6]
  MIC: 0.158 µg/mL
Chlamydia pneumonia [2]; Chlamydia, combined with 5 μg/ml Compound A, read-out: azithromycin concentration required for MIC
  MIC: 0.05 µg/mL
Chlamydia pneumonia [2]; Chlamydia, combined with 10 μg/ml Compound A, read-out: azithromycin concentration required for MIC
  MIC: 0.0158 µg/mL
Chlamydia pneumonia [2]; Chlamydia, combined with 10 μg/ml Compound B, read-out: azithromycin concentration required for MIC
  MIC: 0.05 µg/mL
Chlamydia pneumonia [2]; Chlamydia, combined with 30 μg/ml Compound B, read-out: azithromycin concentration required for MIC
  MIC: 0.0158 µg/mL
Chlamydia pneumonia [2]; [4]
  decrease in azithromycin concentration required for MIC: 3 fold
Chlamydia pneumonia [2]; combined with 10 μg/ml Compound A
  decrease in azithromycin concentration required for MIC: 10 fold
Chlamydia pneumonia [2]; combined with 10 μg/ml Compound B
  decrease in azithromycin concentration required for MIC: 3 fold
Chlamydia pneumonia [2]; [5]
  decrease in azithromycin concentration required for MIC: 10 fold

## O=C(N[C@@H](Cc1ccccc1)[C@@H](O)C(=O)N1C[C@@H](O)[C@@H](O)C1)c1cc2cc(Cl)ccc2[nH]1 [Compound B]
Hep2 cells
  changes in host cell appearance: not associated with any changes in host cell appearance
Chlamydia pneumonia [1]; drug alone, drugs removed at 72 h, additional 72 h
  MBC: > 40 µg/mL
Chlamydia pneumonia [1]
  reduction of the MBC for azithromycin by the glycogen phosphorylase inhibitor: 3 fold
Chlamydia pneumonia [2]
  antibacterial effects of the combination with azithromycin: synergy of antibacterial effects
Chlamydia pneumonia [2]; drug alone, 72 h after addition of drugs
  MIC: > 40 µg/mL

## O=C(N[C@@H](Cc1ccc(F)cc1)C(=O)N1CCC(O)CC1)c1cc2cc(Cl)ccc2[nH]1 [Compound A, 5-chloro-1H-indole-2-carboxylic acid [(1S)-(4-fluoro-benzyl)-2-(4-hydroxypiperidin-1-yl)-2-oxo-ethyl]-amide]
Hep2 cells; Hep2 host cells
  concentrations associated with changes in host cell appearance: ≥ 30000 ng/mL
Chlamydia pneumonia [1]; [3]
  MBC: 30 µg/mL
Chlamydia pneumonia [1]
  reduction of the MBC for azithromycin by the glycogen phosphorylase inhibitor: 3-10 fold
Chlamydia pneumonia [2]; [6]
  MIC: 20 µg/mL
Chlamydia pneumonia [2]
  antibacterial effects of the combination with azithromycin: synergy of antibacterial effects
